Measured values reported in patent publication US11358973B2, “Di(hetero)aryl macrocyclic compound for inhibiting protein kinase activity” (Shenzhen TargetRx, Inc., priority 2018, dated 2022).
Like-named read-outs stand apart in the source and are kept apart here.

Assays:
TRKA kinase = TRKA kinase (Homo sapiens, UniProt P04629); assay: Biochemical kinase analysis (HTRF), TRKA; conditions: 23° C., read-out: Kinase IC50 (nM) TRK A
Description: (§1) Inhibition of TRKA, TRKB, TRKC kinases can be measured by HTRF ([…]) method. The reaction was performed in a 384-well plate at 23° C. with a volume of 20 μL. TRKA TRKB or TRKC kinase were mixed with pre-formulated and diluted compounds of different concentrations for ten minutes in duplicate for each concentration, wherein 11 concentrations made with a 3-fold gradient dilution from the starting concentration of 300 nM were made and the final concentration of DMSO was 2%. The corresponding substrate and ATP were added thereto, and reacted at room temperature for 20 minutes (both a negative and a positive control were set: negative control is blank control, positive control is Entrectinib). After the reaction, detection reagent was added thereto (reagent in HTRF Kinase TK kit), and after incubation at room temperature for 30 minutes, detection was carried out by PerkinElmer Envision microplate reader for determining enzyme activity in the presence of the compounds of the present disclosure at various concentrations, and the inhibitory activity of different concentrations of compounds against enzyme activity was calculated. After that, in accordance with four-factors function and Graphpad 5.0 software, inhibitory activity on enzyme activity under different concentrations of compounds was fitted and IC50 values were calculated.

TRKB kinase = TRKB kinase (Homo sapiens, UniProt Q16620); assay: Biochemical kinase analysis (HTRF), TRKB; conditions: 23° C., read-out: Kinase IC50 (nM) TRK B
Description: as §1

TRKC kinase = TRKC kinase (Homo sapiens, UniProt Q16288); assay: Biochemical kinase analysis (HTRF), TRKC; conditions: 23° C., read-out: Kinase IC50 (nM) TRK C
Description: as §1

KM12 cell line = assay: KM12 cell proliferation analysis (CellTiter-Glo); type: cell-based; conditions: Homo sapiens, 72 h
Description: The CGT method was used to detect the in vitro anti-proliferative activity of the compounds of the present disclosure on tumor cells cultured in vitro. The KM12 cell line was maintained in RPMI-1640 medium containing 10% fetal bovine serum and antibiotics, the cells in the logarithmic growth phase were harvested and planted in a 96-well plate. The plate was incubated in an incubator at 37° C., containing 5% carbon dioxide gas overnight. After the test compounds were dissolved in DMSO, a 3-fold concentration gradient dilution with 9 compound concentrations was made. Pre-prepared compounds of different concentrations were transferred to the cell plate in triplicate for each concentration, and continue culturing for 72 h. The final concentration of DMSO in the system was 0.1%, and the initial concentration of the test compound was 300 nM.
CellTiter-Glo reagent was added to the cell plate, and incubated at room temperature for 30 minutes to stabilize the optical signal. Detection was carried out by PerkinElmer Envision microplate reader for determining the inhibitory activity of the compound of the present disclosure at various concentrations on cell proliferation. The inhibitory activity of compounds at different concentrations on cell proliferation was fitted according to Graphpad 5.0 software, and IC50 values were calculated.

[1] = Pharmacokinetic experiment in rats; type: in vivo, Sprague-Dawley rats; parameters: Cl_pred (L/kg): unit not given here; conditions: rat; for AUC(0-t) / Cmax / Tmax / half-life / AUC(0-inf) / MRT inf / bioavailability: male, Sprague-Dawley, plasma; for AUC(0-inf): read-out: AUCINF_pred; for MRT inf: read-out: MRTINF_pred; for bioavailability: PO 10 mg/kg vs IV 3 mg/kg
Description: 6 male Sprague-Dawley rats (7-8 weeks old, and weighing approximately 210 g) were divided into 2 groups with 3 rats in each group. The rats were intravenously or orally administered a single dose of compounds (3 mg/kg intravenously, 10 mg/kg orally) to compare pharmacokinetic differences.
The rats were feeded on standard food and water. Fasting was started 16 hours before the test. The drug was dissolved in PEG400 and dimethyl sulfoxide. The blood samples were collected from eyelids at the time points of 0.083 hour, 0.25 hour, 0.5 hour, 1 hour, 2 hours, 4 hours, 6 hours, 8 hours, 12 hours, and 24 hours after administration.
Rats were briefly anesthetized after inhalation of diethyl ether and 300 μL of blood sample was collected from the eyelids into test tubes. There was 30 μL of 1% heparin salt solution in the test tube. Tubes were dried at 60° C. overnight before use. After the blood sample was collected at the last time point, the rats were sacrificed after ether anesthesia.
Immediately after the collection of the blood sample, the test tube was gently inverted at least 5 times to ensure sufficient mixing and then placed on ice. The blood sample was centrifuged at 5000 rpm at 4° C. for 5 minutes to separate the plasma from the red blood cells. 100 μL of plasma was aspirated into a clean plastic centrifuge tube with a pipette, marking with the name of the compound and time point. Plasma was stored at −80° C. prior to analysis. The concentration of the compound of the present disclosure in plasma was determined by LC-MS/MS. The pharmacokinetic parameters were calculated based on the blood concentration of the drug for each animal at different time points.

Chain of TRKA kinase (P04629 33-796): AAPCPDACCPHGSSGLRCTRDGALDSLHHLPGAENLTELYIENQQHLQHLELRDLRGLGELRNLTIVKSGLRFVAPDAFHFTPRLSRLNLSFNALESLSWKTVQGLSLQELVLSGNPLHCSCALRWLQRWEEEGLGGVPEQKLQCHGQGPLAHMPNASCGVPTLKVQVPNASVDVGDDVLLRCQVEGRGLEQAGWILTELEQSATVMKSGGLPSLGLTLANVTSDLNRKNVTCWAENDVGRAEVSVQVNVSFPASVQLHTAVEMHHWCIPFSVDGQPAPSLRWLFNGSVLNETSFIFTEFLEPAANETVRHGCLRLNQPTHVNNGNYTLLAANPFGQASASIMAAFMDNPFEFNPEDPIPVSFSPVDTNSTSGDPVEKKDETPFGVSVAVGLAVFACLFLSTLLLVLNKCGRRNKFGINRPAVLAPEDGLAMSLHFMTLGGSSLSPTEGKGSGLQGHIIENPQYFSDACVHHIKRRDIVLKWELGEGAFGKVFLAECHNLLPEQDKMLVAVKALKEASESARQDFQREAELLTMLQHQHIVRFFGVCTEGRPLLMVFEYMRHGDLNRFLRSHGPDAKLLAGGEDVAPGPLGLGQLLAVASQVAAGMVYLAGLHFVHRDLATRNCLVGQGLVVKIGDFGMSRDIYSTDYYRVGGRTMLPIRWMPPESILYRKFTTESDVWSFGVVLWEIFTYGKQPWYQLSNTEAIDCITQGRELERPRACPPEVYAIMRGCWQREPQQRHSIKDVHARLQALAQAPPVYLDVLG
Chain of TRKC kinase (Q16288 32-839): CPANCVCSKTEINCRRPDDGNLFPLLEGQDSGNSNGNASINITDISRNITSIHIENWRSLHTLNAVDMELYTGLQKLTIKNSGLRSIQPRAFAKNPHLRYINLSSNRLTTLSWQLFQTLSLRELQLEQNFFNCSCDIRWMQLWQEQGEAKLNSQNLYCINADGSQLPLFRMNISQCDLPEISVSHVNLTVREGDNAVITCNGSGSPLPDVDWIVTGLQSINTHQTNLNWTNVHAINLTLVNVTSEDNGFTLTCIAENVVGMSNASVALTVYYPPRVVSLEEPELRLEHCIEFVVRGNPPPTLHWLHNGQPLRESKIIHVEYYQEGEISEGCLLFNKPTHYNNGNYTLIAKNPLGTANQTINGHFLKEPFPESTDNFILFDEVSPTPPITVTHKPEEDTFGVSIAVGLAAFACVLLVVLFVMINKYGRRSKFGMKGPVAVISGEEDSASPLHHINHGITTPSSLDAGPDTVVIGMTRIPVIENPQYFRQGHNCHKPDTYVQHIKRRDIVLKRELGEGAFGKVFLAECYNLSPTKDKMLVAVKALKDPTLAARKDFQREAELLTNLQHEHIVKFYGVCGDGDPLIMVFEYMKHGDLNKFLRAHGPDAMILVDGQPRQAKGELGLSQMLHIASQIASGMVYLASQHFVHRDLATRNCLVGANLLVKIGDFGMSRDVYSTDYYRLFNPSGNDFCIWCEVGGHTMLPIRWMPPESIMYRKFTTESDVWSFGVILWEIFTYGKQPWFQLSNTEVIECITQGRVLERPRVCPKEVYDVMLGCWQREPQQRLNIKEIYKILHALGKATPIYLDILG
Chain of TRKB kinase (Q16620 32-822): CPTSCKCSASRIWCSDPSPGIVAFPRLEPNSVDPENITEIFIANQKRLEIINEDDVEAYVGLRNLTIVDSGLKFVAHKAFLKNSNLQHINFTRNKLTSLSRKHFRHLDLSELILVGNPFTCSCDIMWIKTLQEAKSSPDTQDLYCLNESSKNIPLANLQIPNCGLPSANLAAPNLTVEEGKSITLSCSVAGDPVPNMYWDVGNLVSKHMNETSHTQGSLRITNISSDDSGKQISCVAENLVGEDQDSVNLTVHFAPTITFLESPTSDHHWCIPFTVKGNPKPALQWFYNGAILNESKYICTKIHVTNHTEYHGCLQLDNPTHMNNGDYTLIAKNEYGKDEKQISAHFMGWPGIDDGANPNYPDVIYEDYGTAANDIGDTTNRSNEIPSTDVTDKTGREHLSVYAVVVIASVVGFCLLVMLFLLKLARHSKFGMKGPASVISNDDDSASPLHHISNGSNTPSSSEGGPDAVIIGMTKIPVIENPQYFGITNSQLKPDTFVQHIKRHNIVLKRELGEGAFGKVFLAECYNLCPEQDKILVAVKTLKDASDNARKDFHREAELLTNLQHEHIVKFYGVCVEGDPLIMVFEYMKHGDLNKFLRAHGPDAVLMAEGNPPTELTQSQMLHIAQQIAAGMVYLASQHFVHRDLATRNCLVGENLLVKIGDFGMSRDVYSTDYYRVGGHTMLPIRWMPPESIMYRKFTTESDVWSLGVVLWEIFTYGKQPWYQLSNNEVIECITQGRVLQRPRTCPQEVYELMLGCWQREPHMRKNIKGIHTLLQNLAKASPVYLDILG

Compound: O=C1CCOc2ccc(F)cc2[C@H]2CCCN2c2ccn3ncc(c3n2)N1 [Compound L-1-A, (6R)-9-fluoro-13-oxa-2,7,20,21,24-pentaazapentacyclo[16.5.2.0^26.0^7,12.0^21,25]pentacosane-1(24),7,9,11,18(25),19,22-heptaene-16-one]
- IC50 (TRKA kinase): 0.18 nM
- IC50 (TRKB kinase): 0.1 nM
- IC50 (TRKC kinase): 0.14 nM
- IC50 (KM12 cell line): 0.55 nM
- AUC(0-t) ([1]; IV 3 mg/kg): 5010 ng·h/mL
- Cmax ([1]; IV 3 mg/kg): 2160 ng/mL
- Tmax ([1]; IV 3 mg/kg): 0.08 h
- half-life ([1]; IV 3 mg/kg): 2.2 h
- AUC(0-inf) ([1]; IV 3 mg/kg): 5030 ng·h/mL
- MRT inf ([1]; IV 3 mg/kg): 2.18 h
- AUC(0-t) ([1]; PO 10 mg/kg): 11300 ng·h/mL
- Cmax ([1]; PO 10 mg/kg): 1490 ng/mL
- Tmax ([1]; PO 10 mg/kg): 1.58 h
- half-life ([1]; PO 10 mg/kg): 5.77 h
- bioavailability [1]: 67.9%
- AUC(0-inf) ([1]; PO 10 mg/kg): 11300 ng·h/mL
- MRT inf ([1]; PO 10 mg/kg): 4.9 h
- Cl_pred (L/kg) ([1]; IV 3 mg/kg): 0.60
- Vz_pred ([1]; IV 3 mg/kg): 1.75 L/kg
- Cl_pred (L/kg) ([1]; PO 10 mg/kg): 0.92
- Vz_pred ([1]; PO 10 mg/kg): 2.92 L/kg

Compound: C[C@@H]1Nc2ccn3ncc(c3n2)NC(=O)C[C@H](C)Oc2ccc(F)cc21 [Compound T-2-B, (7S,13S)-11-fluoro-7,13-dimethyl-6,7,13,14-tetrahydro-1,15-ethenopyrazolo[4,3-f][1,4,8,10]benzoxatriazacyclotidecin-5(6H)-one]
- IC50 (TRKA kinase): 0.36 nM
- IC50 (TRKB kinase): 0.09 nM
- IC50 (TRKC kinase): 0.09 nM
- IC50 (KM12 cell line): 4.79 nM

Compound: CC1(C)COc2ccc(F)cc2[C@@H]2CCCN2c2ccn3ncc(c3n2)NC1=O [Compound L-3-B, (6S)-9-fluoro-15,15-dimethyl-13-oxa-2,17,20,21,24-pentaazapentacyclo[16.5.2.0^2,6.0^7,12.0^21,25]pentacosane-1(24),7,9,11,18(25),19,22-heptaene-16-one]
- IC50 (TRKA kinase): > 100 nM
- IC50 (TRKB kinase): 70.8 nM
- IC50 (TRKC kinase): > 100 nM

Compound: C[C@H]1CC(=O)Nc2cnn3ccc(nc23)N2CCC[C@H]2c2cc(F)ccc2O1 [Compound L-2-B, (6S,14S)-9-fluoro-14-methyl-13-oxa-2,17,20,21,24-pentaazapentacyclo[16.5.2.0^2,6.0^7,12.0^21,25]pentacosane-1(24),7,9,11,18(25),19,22-heptaene-16-one]
- IC50 (TRKA kinase): 0.41 nM
- IC50 (TRKB kinase): 0.13 nM
- IC50 (TRKC kinase): 0.18 nM
- IC50 (KM12 cell line): 0.65 nM

Compound: C[C@H]1Nc2ccn3ncc(c3n2)NC(=O)NCCOc2ccc(F)cc21 [Compound T-4, (14R)-12-fluoro-14-methyl-5,6,7,8,14,15-hexahydro-1,16-ethenopyrazolo[4,3-g][1,4,9,11]benzoxatetraazacyclotetradecin-5(6H)-one]
- IC50 (TRKA kinase): 4.91 nM
- IC50 (TRKB kinase): 5.31 nM
- IC50 (TRKC kinase): 5.41 nM

Compound: C[C@H]1Nc2ccn3ncc(c3n2)NC(=O)NCCCc2ccc(F)cc21 [Compound T-5, (14R)-12-fluoro-14-methyl-5,6,7,8,14,15-hexahydro-1,16-ethenopyrazolo[4,3-g][1,4,9,11]benzodioadiazatridecin-5(6H)-one]
- IC50 (TRKA kinase): 93.9 nM
- IC50 (TRKB kinase): 225 nM
- IC50 (TRKC kinase): 258 nM

Compound: C[C@@H]1CCc2ncc(F)cc2[C@H]2CCCN2c2ccn3ncc(c3n2)C(=O)N1 [LOXO-195, reference compound]
- IC50 (KM12 cell line): 2.73 nM
- AUC(0-t) ([1]; IV 3 mg/kg): 4670 ng·h/mL
- Cmax ([1]; IV 3 mg/kg): 5010 ng/mL
- Tmax ([1]; IV 3 mg/kg): 0.08 h
- half-life ([1]; IV 3 mg/kg): 1.45 h
- AUC(0-inf) ([1]; IV 3 mg/kg): 4670 ng·h/mL
- MRT inf ([1]; IV 3 mg/kg): 0.54 h
- AUC(0-t) ([1]; PO 10 mg/kg): 4070 ng·h/mL
- Cmax ([1]; PO 10 mg/kg): 1660 ng/mL
- Tmax ([1]; PO 10 mg/kg): 0.33 h
- half-life ([1]; PO 10 mg/kg): 4.11 h
- bioavailability [1]: 26.2%
- AUC(0-inf) ([1]; PO 10 mg/kg): 4090 ng·h/mL
- MRT inf ([1]; PO 10 mg/kg): 2.31 h
- Vz_pred ([1]; IV 3 mg/kg): 0.75 L/kg
- Vz_pred ([1]; PO 10 mg/kg): 5.13 L/kg
